What was measured:
Format in all cases: physicochemical
[1] = Test for pH effect on de-coloration: absorbance in aqueous pH buffer solutions
Experimental: Several 1% solutions of colorant were prepared and added to standard aqueous pH buffer solutions available from VWR and Aldrich to give absorbance of less than one. The colorant solution was tested for absorbance using a DU 7 Spectrophotometer.
In general, the pKa value represents the pH value when approximately half of the colorant is converted to its colorless form. […] “Comparative” is indicated as “Comp.”

[2] = Lightfastness test (AATCC Test Method 16-1993 Option E), effect of ultraviolet light
Experimental: In order to determine the effect of ultraviolet light on the de-coloration rate over time of the colorant compositions of the present invention, the colorants were subjected to a lightfastness test. The test was performed according to AATCC Test Method 16-1993 Option E. Comparative Colorants 1-4 were also tested.
The results are provided as DE CMC values and represent the color difference from the standard or control, which was white paper. […] This value for each of the time intervals is then divided by the initial DE CMC value and multiplied by 100.

[3] = Cellulose powder staining test; conditions: on cellulose powder after stirring with deionized water for one minute
Experimental: Colorant 8 was diluted in water to an absorbtivity value of 33.5 A/g/L; then 0.73 parts was dissolved in 5 parts of methanol to give a stock solution A. One part of this solution was mixed with 10 parts of cellulose microcrystalline powder available from Aldrich. The colored powder was dried in a beaker in a 100° C. oven over 20 minutes with occasional stirring. The dry powder was cooled and stirred with 50 parts deionized water for one minute. The slurry was filtered and the filtrate was collected. The percent retention of color on the cellulose powder was calculated from the ratio of the absorbance of one part stock solution A diluted with 50 parts water and the absorbance of the filtrate solution.
The same procedure was used with a stock solution of 0.73 parts dodecenyl succinic ester acid colorant, Inventive Colorant 9, dissolved in 5 ml of methanol. The percent retention of color was determined in the same manner.

[4] = pH value when approximately half of the colorant is converted to its colorless form
[5] = ultraviolet light exposure time 0 hours
[6] = ultraviolet light exposure time 0 hours (initial)
[7] = ultraviolet light exposure time 2 hours
[8] = ultraviolet light exposure time 5 hours
[9] = ultraviolet light exposure time 10 hours
[10] = ultraviolet light exposure time 20 hours

Molecule | Absorbance ([1]; aqueous buffer pH 2) | Absorbance ([1]; aqueous buffer pH 4) | Absorbance ([1]; aqueous buffer pH 6) | Absorbance ([1]; aqueous buffer pH 7) | Absorbance ([1]; aqueous buffer pH 8) | Absorbance ([1]; aqueous buffer pH 9) | Absorbance ([1]; aqueous buffer pH 10) | pKa Value [1, 4] | Percent Color Fade [2, 5] | DE CMC value (color difference from white paper) [2, 6] | DE CMC value (color difference from white paper) [2, 7] | Percent Color Fade [2, 7] | DE CMC value (color difference from white paper) [2, 8] | Percent Color Fade [2, 8] | DE CMC value (color difference from white paper) [2, 9] | Percent Color Fade [2, 9] | DE CMC value (color difference from white paper) [2, 10] | Percent Color Fade [2, 10] | pKa [1, 4] | Percent Color Retention [3]
3-Methoxy-4-Polyethyleneoxide(6)phenyl-methyliumylidene-di(4,1-phenyleneamino)N,N-polyethyleneoxy(10), Chloride [Colorant 5] | 0.8266 | 0.8269 | 0.7735 | 0.5674 | 0.1928 | 0.0527 | 0.0312 | 7.3 | 0% | 38.47 | 32.17 | 16.38% | 31.67 | 17.68% | 29.83 | 22.46% | 7.15 | 81.42% | – | –
3,4-methylenedioxyphenyl-methyliumylidene-di(4,1-phenyleneamino)N,N-polyethyleneoxy(10), Chloride [Colorant 3] | 0.9589 | 0.955 | 0.9609 | 0.7309 | 0.2375 | 0.0424 | 0.0199 | 7.5 | 0% | 75.15 | 36.95 | 50.83% | 34.25 | 54.42% | 33.39 | 55.57% | 29.45 | 60.81% | – | –
CN(C)c1ccc(C(=C2C=CC(=[N+](C)C)C=C2)c2ccccc2)cc1 [Comp. Colorant 4, Basic Green 4, reference compound] | 0.319 | 0.3843 | 0.4546 | 0.2678 | 0.0538 | 0.0361 | 0.0111 | – | 0% | 44.71 | 14.37 | 67.86% | 13.05 | 70.81% | 9.65 | 78.42% | 5.67 | 87.32% | 7 | –
Phenyl-methyliumylidene-di(4,1-phenyleneamino)N,N-polyethyleneoxy(5)-tetrakisDodecenylsuccinate acid, inner salt [Colorant 9] | – | – | – | – | – | – | – | – | – | – | – | – | – | – | – | – | – | – | – | 92.6%
Phenyl-methyliumylidene-di(4,1-phenyleneamino)N,N-polyethyleneoxy(10), Chloride [Colorant 1] | 0.95 | 0.95 | 0.82 | 0.35 | 0.05 | 0.005 | 0.005 | 6.6 | – | – | – | – | – | – | – | – | – | – | – | –
4-Methylphenyl-methyliumylidene-di(4,1-phenyleneamino)N,N-polyethyleneoxy(10), Chloride [Colorant 4] | 0.8881 | 0.8878 | 0.8304 | 0.569 | 0.154 | 0.0244 | 0.0079 | 7.3 | 0% | 50.95 | 41.31 | 18.92% | 38.99 | 23.47% | 37.19 | 27.01% | 30.97 | 39.22% | – | –
CCN(Cc1cccc(S(=O)(=O)[O-])c1)c1ccc(C(=C2C=CC(=[N+](CC)Cc3cccc(S(=O)(=O)[O-])c3)C=C2)c2ccccc2S(=O)(=O)[O-])cc1.[Na+].[Na+] [Comp. Colorant 3, Acid Blue 9, reference compound] | 0.764 | 0.7699 | 0.7253 | – | 0.7829 | – | 0.804 | >10 | 0% | 58.19 | 52.89 | 9.11% | 49.83 | 14.37% | 46.51 | 20.07% | 40.21 | 30.90% | – | –
Phenyl-methyliumylidene-di(4,1-phenyleneamino)N,N-polyethyleneoxy(5), Chloride [Colorant 8] | – | – | – | – | – | – | – | – | 0% | 51.09 | 39.83 | 22.04% | 38.01 | 25.60% | 12.29 | 75.94% | 8.95 | 82.48% | – | 56%

Reference: patent US20080113868A1, “Colorant compositions and their use as pH sensitive color indicators” (priority 2006, published 2008)
